SMILES strings stand for the structures.

One may read the melting point as the temperature of the solid-liquid transition. A word on the Ki: it is a measure of affinity in units of concentration, obtained from inhibition or displacement. A word on the Hill slope: it is the slope factor of the fitted curve.

For series [1], the target named is T1, human adenosine transporter (Homo sapiens, UniProt Q99808).
T1 construct: homogenates of U-937 cell culture (American Tissue Culture Compository), expressing the human (es) transporter; endogenous in cells; host or cells: U-937 (human) cell membrane homogenates
T1 sequence (Q99808 1-456): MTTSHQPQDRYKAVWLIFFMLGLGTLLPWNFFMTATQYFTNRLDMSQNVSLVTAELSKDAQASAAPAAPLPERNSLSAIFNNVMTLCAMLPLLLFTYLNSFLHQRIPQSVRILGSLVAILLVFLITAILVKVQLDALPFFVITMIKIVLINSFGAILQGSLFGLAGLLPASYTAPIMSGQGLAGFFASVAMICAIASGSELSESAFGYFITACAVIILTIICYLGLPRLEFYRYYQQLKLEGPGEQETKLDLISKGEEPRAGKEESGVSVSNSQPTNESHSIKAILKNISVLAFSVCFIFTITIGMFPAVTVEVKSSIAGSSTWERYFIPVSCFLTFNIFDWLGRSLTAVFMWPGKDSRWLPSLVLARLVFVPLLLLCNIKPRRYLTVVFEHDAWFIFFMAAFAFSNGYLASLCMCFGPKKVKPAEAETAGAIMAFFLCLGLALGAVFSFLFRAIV
Nature of the series: Displacement of [3H]NBTI binding in U-937 cell homogenates. Conditions: mean ± SEM; for Ki: [3H]NBTI 2-4 nM, 50 mM TRIS pH 7.5, 4° C., 1.5 h, Cheng-Prusoff, read-out: Affinity (Ki μM); for Hill slope: log-logit analysis of competition binding data. How it is done:
Neurochem 39, 184-191 (1982), incorporated herein by reference. The cell membranes in final concentration of 0.03 mg protein/mL are incubated with [^3H]NBTI at 2-4 nM concentration in 50 mM TRIS buffer (pH 7.5) at 4° C. for 1.5 h in a total volume of 1.0 mL. Nonspecific binding is defined with 10 μM NBTI. Each determination is carried out in triplicate. Bound and free [^3H]NBTI are separated by vacuum filtration through fiberglass filters (Schleicher & Schuell, Keene, N.H.) that are presoaked with 0.3% polyethylenimine for 10 min, using a Brandel […] cell harvester. The filters are washed three times for 10 s with ice-cold 50 mM TRIS buffer and placed in 10 mL scintillation fluid (Cytoscint, ICN). Beta spectrometry is performed using a Beckman […] instrument at 47% counting efficiency. IC50 values and Hill slopes (nH) are calculated from log-logit analysis of competition binding data. Ki values of the competing ligand are calculated from IC50 values using the Cheng-Prusoff equation, Ki=IC50/(1+L/KD) […] Data are expressed as mean±standard error of the mean (SEM).
(In general: Loss of bound radioactivity is the signal in a displacement assay; it reports binding, not function.)

Series [2] addresses T2, human (es) transporter (Homo sapiens, UniProt Q99808).
T2 construct: homogenates of U-937 cell culture (American Tissue Culture Compository), expressing the human (es) transporter; endogenous in cells; host or cells: U-937 (human) cell membrane homogenates
T2 sequence (Q99808 1-456): T1 sequence (Q99808 1-456)
In words: Inhibition of [3H]adenosine transport in homogenates of U-937 cell culture. Format: biochemical. Conditions: 10 μM [3H]adenosine; U-937 cell homogenates; HEPES buffer, 37° C., 30 min; read-out: inhibitory constant Ki, transport of [3H]adenosine. How it is done: Inhibition of [^3H]adenosine transport in homogenates of U-937 cell culture (American Tissue Culture Compository), expressing the human (es) transporter is performed according to Gu et al, J. Neurochem 67, 972-977 (1996), which is incorporated herein by reference. Rate of transport is determined in HEPES buffer at 37° C. for 30 min (with choline replacing sodium). Full displacement curves for the adenosine transporter are obtained by using 8 concentrations of each compound, increasing by a factor of 2 and ranging from 0.25 μM-32 μM. Nonspecific transport is defined with 1 μM NBTI ((S)-(4-nitrobenzyl)-6-thioinosine). Cell cultures are grown in high glucose Dulbecco's modified Eagle's medium supplemented with NaHCO3 (40 mM), 10% fetal bovine serum (Gibco), 400 mg/L geneticin, and 0.1 mM hypoxanthine.
Briefly, the cells are cultured at 37° C. under a CO2/air (5/95, v/v) in tissue culture flasks (75 cm^2, Falcon). When reaching confluency (70-80%), cells are trypsinized and harvested by centrifugation. Harvested cells are re-suspended in 50 mM TRIS buffer at 4° C. (0.1 mg/mL), the cell membranes are disrupted by Polytron homogenization (12,500 rpm for 25 s), and the suspension is centrifuged at 30,000×g for 60 min. The supernatent is discarded and remaining the pellet is resuspended in 50 mM TRIS buffer to 0.2 mg-0.5 mg protein/mL and frozen at −80° C. until used. […]

For `O=C(C=Cc1ccc(Cl)cc1)OC1CC2(O)CC(OC2=O)C1OC(=O)C=Cc1ccc(Cl)cc1` (stereo not drawn) [3,4-di(4-chlorocinnamoyl)-1,5-quinide], the melting point came out at 172 °C. Besides, in series [1], the Ki stood at 1.3 µM and the Hill slope is 1.12 ± 0.00.
Taken in the same sequence, the figures for `O=C(C=Cc1ccc(O)cc1)OC1CC2(O)CC(OC2=O)C1OC(=O)C=Cc1ccc(O)cc1` (stereo not drawn) [3,4-dicoumaroyl-1,5-quinide] were 233 to 235 °C, 0.96 ± 0.07 µM and 1.22 ± 0.11.
Regarding `COc1cc(C=CC(=O)OC2CC3(O)CC(OC3=O)C2OC(=O)C=Cc2ccc(O)c(OC)c2)ccc1O` (stereo not drawn) [3,4-diferuloyl-1,5-quinide], the melting point lay in the range of 142 to 144 °C. Also, in series [2], the Ki turned out to be 1.2 µM. In series [1], the Ki was 0.96 ± 0.13 µM and the Hill slope was 0.94 ± 0.02.
For the molecule `O=C(C=Cc1ccc(O)c(O)c1)OC1CC2(O)CC(OC2=O)C1OC(=O)C=Cc1ccc(O)c(O)c1` (stereo not drawn) [3,4-dicaffeoyl-1,5-quinide], in series [1], the Ki amounted to 2.4 ± 0.7 µM and the Hill slope is given as 1.00 ± 0.03.

For the origin of these results see patent US6693128B2, “Substituted dicinnamoylquinides and their use in augmentation of adenonsine function” (Vanderbilt University, priority 2001, dated 2004).
